Data as given in US20140303164A1, “THERAPEUTIC COMPOUNDS” (Gilead Sciences, Inc., priority 2013, published 2014).

Experiments:
[1] = tested on: HIV-IIIb; assay: Test A: Antiviral Assay in MT4 Cells; type: cell-based, HIV-1; details: Human immunodeficiency virus 1, IIIB, MT4, 120 h; for inhibition at 0.2 µM: read-out: % inhibition at 0.2 μM; for inhibition at 2 µM: read-out: % inhibition at 2 μM
Method: Test A: Antiviral Assay in MT4 Cells
MT-4 cells were next mixed with HIV-IIIb at an m.o.i of 0.003 for 1 hour, after which time 35 μL of virus/cell mixture (2000 cells) was immediately added to each well containing 40 μL of diluted compound. The plates were then incubated at 37° C. for 5 days. […] Cell lysis was carried out by incubating at room temperature for 10 min and then chemiluminescence was read.

[2] = Test B: Cytotoxicity Assay; type: cell-based; details: human, uninfected MT-4 cells, same protocol as Test A
Outline: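 Uninfected MT-4 cells (2000 per well) incubated with diluted compound at 37° C. for 5 days, following the antiviral protocol without HIV-IIIb.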

Row | Compound | inhibition at 0.2 µM [1] [%] | inhibition at 2 µM [1] [%] | CC50 at 5 days [2] [µM]
1 | CC(C)(C)C#Cc1ccc(-c2ccc(Cl)n3c(NS(C)(=O)=O)nnc23)c([C@H](Cc2cc(F)cc(F)c2)NC(=O)Cn2nc(C(F)F)c3c2C(F)(F)[C@@H]2C[C@H]32)n1 [Compound 118, N—((S)-1-(3-(5-chloro-3-(methylsulfonamido)-[1,2,4]triazolo[4,3-a]pyridin-8-yl)-6-(3,3-dimethylbut-1-yn-1-yl)pyridin-2-yl)-2-(3,5-difluorophenyl)ethyl)-2-((3b-S,4aR)-3-(difluoromethyl)-5,5-difluoro-3b,4,4a,5-tetrahydro-1H-cyclopropa[3,4]cyclopenta[1,2-c]pyrazol-1-yl)acetamide] | 96 | 96 | 23.9
2 | Cn1nc(NS(C)(=O)=O)c2c(Cl)ccc(-c3ccc(C#CC(C)(C)O)nc3[C@H](Cc3cc(F)cc(F)c3)NC(=O)Cn3nc(I)c4c3C(F)(F)[C@@H]3C[C@H]43)c21 [Compound 160, N—((S)-1-(3-(4-chloro-1-methyl-3-(methylsulfonamido)-1H-indazol-7-yl)-6-(3-hydroxy-3-methylbut-1-yn-1-yl)pyridin-2-yl)-2-(3,5-difluorophenyl)ethyl)-2-((3bS,4aR)-5,5-difluoro-3-iodo-3b,4,4a,5-tetrahydro-1H-cyclopropa[3,4]cyclopenta[1,2-c]pyrazol-1-yl)acetamide] | 100 | 100 | 20.5
3 | Cn1nc(NC(=O)CO)c2c(Cl)ccc(-c3ccc(C#CC(C)(C)O)nc3[C@H](Cc3cc(F)cc(F)c3)NC(=O)Cn3nc(C(F)F)c4c3C(F)(F)[C@@H]3C[C@H]43)c21 [Compound 88, N—((S)-1-(3-(4-chloro-3-(2-hydroxyacetamido)-1-methyl-1H-indazol-7-yl)-6-(3-hydroxy-3-methylbut-1-yn-1-yl)pyridin-2-yl)-2-(3,5-difluorophenyl)ethyl)-2-((3b-S,4aR)-3-(difluoromethyl)-5,5-difluoro-3b,4,4a,5-tetrahydro-1H-cyclopropa[3,4]cyclopenta[1,2-c]pyrazol-1-yl)acetamide] | 100 | 100 | 8.49
4 | Cn1nc(NC(=O)CN2CCCC2)c2c(Cl)ccc(-c3ccc(C#CC(C)(C)O)nc3[C@H](Cc3cc(F)cc(F)c3)NC(=O)Cn3nc(C(F)F)c4c3C(F)(F)[C@@H]3C[C@H]43)c21 [Compound 100, N—((S)-1-(3-(4-chloro-1-methyl-3-(2-(pyrrolidin-1-yl)acetamido)-1H-indazol-7-yl)-6-(3-hydroxy-3-methylbut-1-yn-1-yl)pyridin-2-yl)-2-(3,5-difluorophenyl)ethyl)-2-((3b-S,4aR)-3-(difluoromethyl)-5,5-difluoro-3b,4,4a,5-tetrahydro-1H-cyclopropa[3,4]cyclopenta[1,2-c]pyrazol-1-yl)acetamide] | 99 | 99 | 5.14
5 | Cc1ccc(C)c2c1NC(=O)C2CC(=O)N[C@@H](Cc1cc(F)cc(F)c1)c1nc(C#CC(C)(C)O)ccc1-c1ccc(Cl)c2c(NS(C)(=O)=O)nn(C)c12 (stereo partly drawn) [Compound 196, N—((S)-1-(3-(4-chloro-1-methyl-3-(methylsulfonamido)-1H-indazol-7-yl)-6-(3-hydroxy-3-methylbut-1-yn-1-yl)pyridin-2-yl)-2-(3,5-difluorophenyl)ethyl)-2-(4,7-dimethyl-2-oxoindolin-3-yl)acetamide] | 76 | 92 | 10.8
6 | CC(C)(O)C#Cc1ccc(-c2cnc3[nH]ccc3c2F)c([C@H](Cc2cc(F)cc(F)c2)NC(=O)Cn2nc(C(F)(F)F)c3c2C(F)(F)[C@@H]2C[C@H]32)n1 [Compound 36C, 2-((3bS,4aR)-5,5-difluoro-3-(trifluoromethyl)-3b,4,4a,5-tetrahydro-1H-cyclopropa[3,4]cyclopenta[1,2-c]pyrazol-1-yl)-N—((S)-2-(3,5-difluorophenyl)-1-(3-(4-fluoro-1H-pyrrolo[2,3-b]pyridin-5-yl)-6-(3-hydroxy-3-methylbut-1-yn-1-yl)pyridin-2-yl)ethyl)acetamide] | 88 | 92 | 3.15
7 | Cn1nc(NS(C)(=O)=O)c2c(Cl)ccc(-c3ccc(C#CC(C)(C)O)nc3[C@H](Cc3cc(F)cc(F)c3)NC(=O)Cn3nc4c(c3Cl)CCCC4)c21 [Compound 125D, (S)—N-(1-(3-(4 chloro-1-methyl-3-(methylsulfonamido)-1H-indazol-7-yl)-6-(3-hydroxy-3-methylbut-1-yn-1-yl)pyridin-2-yl)-2-(3,5-difluorophenyl)ethyl)-2-(3-chloro-4,5,6,7-tetrahydro-2H-indazol-2-yl)acetamide] | 96 | 97 | 13.6
8 | CNc1nn(C)c2c(-c3ccc(C#CC(C)(C)O)nc3[C@H](Cc3cc(F)cc(F)c3)NC(=O)Cn3nc(C(F)F)c4c3C(F)(F)[C@@H]3C[C@H]43)ccc(Cl)c12 [Compound 81, N—((S)-1-(3-(4-chloro-1-methyl-3-(methylamino)-1H-indazol-7-yl)-6-(3-hydroxy-3-methylbut-1-yn-1-yl)pyridin-2-yl)-2-(3,5-difluorophenyl)ethyl)-2-((3bS,4aR)-3-(difluoromethyl)-5,5-difluoro-3b,4,4a,5-tetrahydro-1H-cyclopropa[3,4]cyclopenta[1,2-c]pyrazol-1-yl)acetamide] | 100 | 100 | 12.5
9 | Cc1c(CCO)c(C2CC2)nn1CC(=O)N[C@@H](Cc1cc(F)cc(F)c1)c1nc(C#CC(C)(C)O)ccc1-c1ccc(Cl)c2c(NS(C)(=O)=O)nn(C)c12 [Compound 167, (S)—N-(1-(3-(4 chloro-1-methyl-3-(methylsulfonamido)-1H-indazol-7-yl)-6-(3-hydroxy-3-methylbut-1-yn-1-yl)pyridin-2-yl)-2-(3,5-difluorophenyl)ethyl)-2-(3-cyclopropyl-4-(2-hydroxyethyl)-5-methyl-1H-pyrazol-1-yl)acetamide] | 93 | 93 | 34.1
10 | CC(C)n1cc(-c2ccc(-c3ccc(Cl)c4c(NS(C)(=O)=O)nn(C)c34)c([C@H](Cc3cc(F)cc(F)c3)NC(=O)Cn3nc(C(F)(F)F)c4c3C(F)(F)[C@@H]3C[C@H]43)n2)cn1 [Compound 174, N—((S)-1-(3-(4-chloro-1-methyl-3-(methylsulfonamido)-1H-indazol-7-yl)-6-(1-isopropyl-1H-pyrazol-4-yl)pyridin-2-yl)-2-(3,5-difluorophenyl)ethyl)-2-((3bS,4aR)-5,5-difluoro-3-(trifluoromethyl)-3b,4,4a,5-tetrahydro-1H-cyclopropa[3,4]cyclopenta[1,2-c]pyrazol-1-yl)acetamide] | 85 | 85 | > 53.2
11 | CC(C)C(=O)Nc1nn(C)c2c(-c3ccc(C#CC(C)(C)O)nc3[C@H](Cc3cc(F)cc(F)c3)NC(=O)Cn3nc(C(F)F)c4c3C(F)(F)[C@@H]3C[C@H]43)ccc(Cl)c12 [Compound 96, N-(4-chloro-7-(2-((S)-1-(2-((3b-S,4aR)-3-(difluoromethyl)-5,5-difluoro-3b,4,4a,5-tetrahydro-1H-cyclopropa[3,4]cyclopenta[1,2-c]pyrazol-1-yl)acetamido)-2-(3,5-difluorophenyl)ethyl)-6-(3-hydroxy-3-methylbut-1-yn-1-yl)pyridin-3-yl)-1-methyl-1H-indazol-3-yl)isobutyramide] | 100 | 100 | 7
12 | Cn1nc(NS(N)(=O)=O)c2c(Cl)ccc(-c3ccc(C#CC(C)(C)O)nc3[C@H](Cc3cc(F)cc(F)c3)NC(=O)Cn3nc(C(F)F)c4c3C(F)(F)CCC4(F)F)c21 [Compound 122, (S)—N-(1-(3-(4 chloro-1-methyl-3-(sulfamoylamino)-1H-indazol-7-yl)-6-(3-hydroxy-3-methylbut-1-yn-1-yl)pyridin-2-yl)-2-(3,5-difluorophenyl)ethyl)-2-(3-(difluoromethyl)-4,4,7,7-tetrafluoro-4,5,6,7-tetrahydro-1H-indazol-1-yl)acetamide] | 88 | 88 | 9.07
13 | CC(C)(O)C#Cc1ccc(-c2cccc3c(N)noc23)c([C@H](Cc2cc(F)cc(F)c2)NC(=O)Cn2nc(C(F)(F)F)c3c2C(F)(F)[C@@H]2C[C@H]32)n1 [Compound 69, N—((S)-1-(3-(3-aminobenzo[d]isoxazol-7-yl)-6-(3-hydroxy-3-methylbut-1-yn-1-yl)pyridin-2-yl)-2-(3,5-difluorophenyl)ethyl)-2-((3b-S,4aR)-5,5-difluoro-3-(trifluoromethyl)-3b,4,4a,5-tetrahydro-1H-cyclopropa[3,4]cyclopenta[1,2-c]pyrazol-1-yl)acetamide] | 77 | 77 | 0.718
14 | Cn1nc(NS(N)(=O)=O)c2cccc(-c3ccc(C#CC(C)(C)O)nc3[C@H](Cc3cc(F)cc(F)c3)NC(=O)Cn3nc(C(F)F)c4c3C(F)(F)[C@@H]3C[C@H]43)c21 [Compound 54, 2-((3b-S,4aR)-3-(difluoromethyl)-5,5-difluoro-3b,4,4a,5-tetrahydro-1H-cyclopropa[3,4]cyclopenta[1,2-c]pyrazol-1-yl)-N—((S)-2-(3,5-difluorophenyl)-1-(6-(3-hydroxy-3-methylbut-1-yn-1-yl)-3-(1-methyl-3-(sulfamoylamino)-1H-indazol-7-yl)pyridin-2-yl)ethyl)acetamide] | 98 | 98 | 8.08
